What all share (assay type): functional
One assay concerns NCI-H226. In words: Growth inhibition of Homo sapiens (human) NCI-H226 cells after 72 hr by MTT assay. As to conditions: NCI-H226, 72 h. (In general: Tetrazolium assays rely on reduction of a dye to a coloured formazan, in cell work by metabolically active cells.)
A short description of assay [1]: Growth inhibition of Homo sapiens (human) NPC-TW01 cells after 72 hr by MTT assay. The conditions noted are these: NPC-TW01, 72 h.
Another assay relates to Jurkat. In words: Growth inhibition of Homo sapiens (human) Jurkat cells after 72 hr by MTT assay.

Usually GI50 stands for the concentration giving 50% growth inhibition. Read a low GI50 as greater sensitivity of the cells. `CN(C)/C=N/c1c(C=O)c(-c2ccccc2)nn1-c1ccccc1`: the GI50 in the assay on NCI-H226 came to 31.4 µM; in assay [1] it was 9.3 µM.
Regarding `CN(C)/C=N/c1c(C=O)c(-c2ccc(Cl)cc2)nn1-c1ccc(Br)cc1`, the figures for the GI50 (with NCI-H226; with Jurkat; in assay [1]) were 62.9 µM, 38.9 µM and above 100 µM, respectively.
The like results for `CN(C)/C=N/c1cc(-c2ccccc2)nn1-c1ccccc1` were, in that order, above 100 µM, above 100 µM and above 100 µM.
The like results for `Cc1ccc(-c2cc(/N=C/N(C)C)n(-c3cccc(Cl)c3)n2)cc1` were, in that order, 80.9 µM, above 100 µM and above 100 µM.
For `CN(C)/C=N/c1cc(-c2ccc(Cl)cc2)nn1-c1cccc(Cl)c1`, the GI50 was 75.6 µM in the assay on NCI-H226, 74.5 µM in the assay on Jurkat and 92.7 µM in assay [1].
Consider `Cc1ccc(-c2cc(/N=C/N(C)C)n(-c3ccc(Br)cc3)n2)cc1`, for which the GI50 in the assay with NCI-H226 was 73.9 µM; with Jurkat, above 100 µM; in assay [1], above 100 µM.
Consider `CN(C)/C=N/c1cc(-c2ccc(Cl)cc2)nn1-c1ccc(Br)cc1`, for which the GI50 in the assay with NCI-H226 worked out at 59.8 µM; in the assay with Jurkat, 84.9 µM; in assay [1], 60.7 µM.
For `Nc1c(C=O)c(-c2ccccc2)nn1-c1ccccc1` the same measures were above 100 µM, 87.3 µM and above 100 µM.
For `Cc1ccc(-c2nn(-c3cccc(Cl)c3)c(N)c2C=O)cc1` the same measures were 71.8 µM, 86.3 µM and above 100 µM.
Consider `Nc1c(C=O)c(-c2ccc(Cl)cc2)nn1-c1cccc(Cl)c1`, for which the values for the GI50 (in the assay with NCI-H226; with Jurkat; in assay [1]) were 79.7 µM, 78.9 µM and above 100 µM, respectively.
As to `Cc1ccc(-c2nn(-c3ccc(Br)cc3)c(N)c2C=O)cc1`, the GI50 turned out to be 8.5 µM in the assay with NCI-H226, 34.4 µM in the assay on Jurkat and 28.2 µM in assay [1].
Regarding `Nc1c(C=O)c(-c2ccc(Cl)cc2)nn1-c1ccc(Br)cc1`, the figures for the GI50 (in the assay with NCI-H226; in the assay with Jurkat; in assay [1]) were 49.1 µM, 90.7 µM and 59.7 µM, respectively.
For `Nc1cc(-c2ccccc2)nn1-c1ccccc1` the same measures were 72.2 µM, 83 µM and above 100 µM.
`Cc1ccc(-c2cc(N)n(-c3cccc(Cl)c3)n2)cc1`: the 50% growth inhibitory concentration (GI50) in the assay on NCI-H226 was 63.5 µM; with Jurkat, 56.6 µM; in assay [1], above 100 µM.
For `Nc1cc(-c2ccc(Cl)cc2)nn1-c1cccc(Cl)c1`, the GI50 was 75.1 µM with NCI-H226, above 100 µM with Jurkat and above 100 µM in assay [1].
Consider `Cc1ccc(-c2cc(N)n(-c3ccc(Br)cc3)n2)cc1`, for which the GI50 with NCI-H226 was 54.3 µM; in the assay with Jurkat, 45 µM; in assay [1], 80.2 µM.
As for `Nc1cc(-c2ccc(Cl)cc2)nn1-c1ccc(Br)cc1`, the GI50 was determined as 58.7 µM with NCI-H226, 61.3 µM in the assay on Jurkat and 64.4 µM in assay [1].
On to `Cc1ccc(-c2nn(-c3cccc(Cl)c3)c(/N=C/N(C)C)c2C=O)cc1`, for which the results for the GI50 (with NCI-H226; with Jurkat; in assay [1]) were 8.9 µM, 7.8 µM and 7.2 µM, respectively.
For `CN(C)/C=N/c1c(C=O)c(-c2ccc(Cl)cc2)nn1-c1cccc(Cl)c1` the same measures were 9.2 µM, 7.7 µM and 7.4 µM.
`Cc1ccc(-c2nn(-c3ccc(Br)cc3)c(/N=C/N(C)C)c2C=O)cc1`: the GI50 came out at 8.2 µM in the assay on NCI-H226, 6.7 µM in the assay on Jurkat and 6 µM in assay [1].

The values are drawn from ChEMBL document CHEMBL3044886, “Chemoselective synthesis, antiproliferative activities, and SAR study of 1H-pyrazol-5-yl-N,N-dimethylformamidines and pyrazolyl-2-azadienes” (2012).
